Assay results: US20100260680A1, “NOVEL BONE MASS INCREASING AGENT” (ORIENTAL YEAST CO., LTD., priority 2007, published 2010)
Bridges are numbered along the chain shown (N, C = ends). Where no end group is shown, it is not given here.

Experiments:
[1] = test system: human alkaline phosphatase (hALP) and human type I collagen (hCollagen I); test: RT-PCR analysis of hALP and hCollagen I in human mesenchymal stem cells; assay type: cell-based
Description: Human mesenchymal stem cells (3×10^4 cells) were seeded on a 6-well plate, followed by culture for 7 days in the presence of an osteoblast differentiation medium (Lonza) or a maintenance medium (Lonza). Peptide D (100 μM and 300 μM) was added to each well. Further, a peptide solvent was added to a control group. After culture, the cells were washed with PBS and dissolved in QIAzol Lysis Reagent (QIAGEN) (0.75 mL). Then, the solution was collected. The solution was left at room temperature for 5 minutes. Then, chloroform (Wako) (0.15 mL) was added, the resultant was admixed by turning upside down, and then the resultant was centrifuged under conditions of 4° C. and 12000×g for 15 minutes. The supernatant was collected in a new tube. RNA was isolated from the supernatant with the use of an EZ1 RNA universal tissue kit (QIAGEN) and Magtration System 12GC (QIAGEN). After determination of the RNA concentration, each RNA (250 ng) was subjected to electrophoresis with 1% agarose gel for confirmation of the occurrence or nonoccurrence of RNA degradation. Non-degraded RNAs (500 ng each) were subjected to RT-PCR. RT-PCR was performed using a ThermoScript RT-PCR System (Invitrogen) and random primers. […]
Samples obtained after the PCR reaction were subjected to electrophoresis with 1% agarose gel. […] The obtained images were analyzed with a CSAnalyzer. […]

MAP kinase p38 = test: Western blotting of p38 phosphorylation in MC3T3-E1 cells; assay type: cell-based, mouse; conditions: 200 μM peptide D
Description: MC3T3-E1 cells mixed with 10% FBS+αMEM (SIGMA) were seeded on a 6-well plate (7.5×10^4 cells/well). […] The medium was removed at the respective time points shown in the relevant figures. PBS was added to the cells, and the cells were collected with a scraper (Falcon). A cell pellet was obtained via centrifugation at 1200 rpm for 5 min at 4° C. RIPA buffer (100 μL) was added to the collected pellet, for dissolution of the cellular membrane. Further, the resultant was centrifuged under conditions of 14500 rpm for 25 min at 4° C. The supernatant was collected as a cell extract. A portion of the cell extract was used for quantification of the protein concentration with the use of a BCA protein assay kit (PIERCE). For SDS-PAGE, a sample buffer in an amount that was ¼ that of the cell extract (Fermentas) was added thereto, followed by heating at 95° C. for 5 min. The prepared sample was applied in an amount of 7.5 or 10 μg to 10% polyacrylamide gel (BioRad), followed by electrophoresis at 170 V for 1 hour. After electrophoresis, the electrophoresed sample was transferred to a PVDF membrane (Millipore) at 80 mA for 40 min. The membrane was shaken in a blocking solution (Nacalai) at room temperature for 1 hour and then a primary antibody was added thereto, followed by shaking at room temperature for 1 hour at 4° C. for 12 hours. […]

mouse tibia = test: DNA microarray analysis of tibia of mice given peptide D; assay type: in vivo; conditions: peptide D acetate 10 mg/kg s.c. three times daily for 5 days; n=2
Description: Total RNA (2 μg) extracted from the tibia of each mouse described in Example 24 was used for a DNA microarray (each group: n=2). According to a standard method, DNA microarray analysis (Mouse Genome 430 2.0 Affymetrix) was carried out. In addition, scanning was performed with a GeneChip Scanner 3000 (Affymetrix 690036) and digitalization was performed using the Gene Chip Operating Software ver. 1.4.

## peptide D: cyclic peptide of SEQ ID NO: 7, 9 amino acids, two cysteine residues bound via a disulfide bond; binds to RANKL (YCWSQYLCY; disulfide 2-8 (inferred))
[1]; 100 μM and 300 μM, 7-day differentiation
  expression levels of alkaline phosphatase and type I collagen: increased in a peptide-concentration-dependent manner
[1]; 300 μM, maintenance medium
  mRNA expression levels of alkaline phosphatase and type I collagen: caused increases in the mRNA expression levels
MAP kinase p38; 12 hours after the addition
  p38 phosphorylation: significant p38 phosphorylation
MAP kinase p38; within a short period of time after the addition
  p38 phosphorylation: no significant changes
Mouse tibia
  microarray signals of OC, ALP, CoL1 α2, PDGFc, PDGFRβ and IGF-1 in tibia: significantly higher signals
